Laboratory results: US11319526B2, “Methods and compositions for making antibodies and antibody derivatives with reduced core fucosylation” (Seagen Inc., priority 2008, dated 2022)

Columns and labels:
[1] = tested on: core fucosylation of h1F6 in CHO DG44 cell line; experiment: Capillary electrophoresis of oligosaccharides of h1F6 expressed in the presence of alkynyl fucose peracetate; type: cell-based, Chinese hamster; conditions: h1F6 expressed with 50 μM alkynyl fucose peracetate; β-galactosidase treated sample (FIG. 1C)
Protocol: To determine the effect of alkynyl fucose peracetate on glycosylation of antibodies, a CHO DG44 cell line expressing a humanized IgG1 anti-CD70 monoclonal antibody, h1F6 (see International Patent Publication WO 06/113909) was cultured at 3.0×10^5 cells per mL in 30 mLs of CHO culture media at 37°, 5% CO2, by shaking at 100 RPM in 125 mL shake flasks. The CHO culture media was supplemented with insulin like growth factor (IGF), penicillin, streptomycin and either 50 or 100 μM alkynyl fucose peracetate (prepared as described in Example 1). […]
To further characterize the glycans on the h1F6 antibodies from Example 3, capillary electrophoresis was performed. […] Labeled oligosaccharides were diluted with water and analyzed by capillary electrophoresis using a Beckman Coulter PA-800 in a N-CHO coated capillary (Beckman Coulter). […] Labeled oligosaccharides were detected using laser induced fluorescence (LFI) with an excitation wavelength of 488λ. Emission fluorescence was detected at 520λ.
Samples of the antibodies were also treated with β-galactosidase to remove galactose. […] Labeled oligosaccharides were diluted with water and analyzed by capillary electrophoresis using a Beckman Coulter PA-800, in a N-CHO coated capillary (Beckman Coulter) running in 40 mM EACA, 0.2% HPMC at pH 4.5. […] Labeled oligosaccharides were detected using laser induced fluorescence (LFI) with an excitation wavelength of 488λ. […]

[2] = tested on: antibody core fucosylation in CHO DG44 cell line producing h1F6; experiment: Effect of fucose analogs on antibody core fucosylation (h1F6 from CHO DG44 culture); type: cell-based, Chinese hamster; conditions: Cricetulus griseus, CHO-DG44, 120 h, Table 1, day 5
Protocol: Media was supplemented with insulin like growth factor (IGF), penicillin, streptomycin and either 1 mM or 50 μM of the fucose analog (prepared as described supra). On day 5 post inoculation, the culture was centrifuged at 13000 RPM for 5 minutes to pellet cells; antibodies were then purified from supernatant.
(§1) Antibody purification was performed by applying the conditioned media to protein A resin pre-equilibrated with 1× phosphate buffered saline (PBS), pH 7.4. After washing resin with 20 resin bed volumes of 1×PBS, antibodies were eluted with 5 resin bed volumes of Immunopure IgG elution buffer (Pierce Biotechnology, Rockford, Ill.). A 10% volume of 1M tris pH 8.0 was added to neutralize the eluted fraction.

[3] = tested on: BALB/C mouse spleen cell and SP2/0 mouse myeloma cell fusion expressing a murine anti-Liv-1 antibody; experiment: Antibody core fucosylation in hybridoma, BALB/C-SP2/0 fusion; type: cell-based; conditions: 50 μM in Hybridoma Serum Free Media
Protocol: Three antibody expressing hybridoma lines were tested to determine the effect of alkynyl fucose peracetate on antibody core fucosylation from these cell lines. These hybridomas were: 1) a BALB/C mouse spleen cell and a P2X63-AG 8.653 mouse myeloma cell fusion expressing the chimeric anti-ley antigen antibody BR96; 2) a BALB/C mouse spleen cell and a NS0 mouse myeloma cell fusion expressing a murine anti-Liv1 antibody; and 3) a BALB/C mouse spleen cell and a SP2/0mouse myeloma cell fusion expressing a murine anti-Liv-1 antibody. These hybridomas were cultured at 3.0×10^5 cells per mL in 30 mLs of Hybridoma Serum Free Media (Invitrogen, Carlsbad Calif.) supplemented with 50 μM alkynyl fucose peracetate at 37° C., 5% CO2 and shaking at 100 RPM in a 125 mL shake flask. Cultures were fed on day 3 with 2% volume of a feed media. On day four, the culture was split 1:4 into fresh culture media. Cultures were fed with a 6% volume of feed media on days 5, 7, 9 and 10. Conditioned media was collected when the viability of the culture dropped below 60% or on day 13 by passing culture through a 0.2 μm filter.
Antibody purification was performed by applying the conditioned media to a protein A column pre-equilibrated with 1× phosphate buffered saline (PBS), pH 7.4. […]

[4] = tested on: CHO DG44 cell line producing h1F6; experiment: Non-core fucosylated antibody production in different culture media; type: cell-based, Chinese hamster; conditions: 50 μM; PowerCHO versus OptiCHO media, day 5
Protocol: To determine the effect of different culture media on non-core fucosylated antibody production, a CHO DG44 cell line producing a humanized IgG1 anti-CD70 monoclonal antibody, h1F6 (see International Patent Publication WO 06/113909), was cultured in various media. The cells (7.5×10^5 cells per mL in 2 mLs) were cultured in PowerCHO (Lonza Group Ltd., Basil, Switzerland) or OptiCHO (Invitrogen, Carlsbad, Calif.) media CHO culture media at 37°, 5% CO2 and shaking at 100 RPM in a 6 well tissue culture plate. Media was supplemented with insulin like growth factor (IGF), penicillin, streptomycin and 50 μM alkynyl fucose peracetate. On day 5 post-inoculation, the culture was centrifuged at 13000 RPM for 5 minutes to pellet cells; antibodies were then purified from supernatant.
as §1, with “fraction. Production of non-core fucosylated antibody was determined as described in Example 7. The proportion of non-core fucosylated to core fucosylated antibody produced from each media was similar.” for “fraction.”

For C#CC(OC(C)=O)[C@@H](OC(C)=O)[C@@H](OC(C)=O)[C@@H](C=O)OC(C)=O (stereo partly drawn) [Alkynyl fucose peracetate, 5-ethynylarabinose tetraacetate], the oligosaccharide core fucosylated [1] was 6%, the oligosaccharide non-core fucosylated [1] was “approximately 85%” and the inhibition at 50 µM ([2]; 50 μM fucose analog, inhibition of core fucosylation of h1F6, read-out: Inhibition at 50 μM) was over 80%. The inhibition at 1000 µM ([2]; 1 mM fucose analog, ND = non-core fucosylated antibody not detected due to poor antibody production or inhibition of cell growth) was over 80%, the core fucosylation [3] was “inhibited” and the “proportion of non-core fucosylated to core fucosylated antibody produced from each media” value [4] was “similar”.
